Paper PMC6873218, “Functional Expression of Multidrug Resistance Protein 4 MRP4/ABCC4” (Slas Discovery, 2019)

Target: T1, Multidrug resistance protein 4 (MRP4/ABCC4) (Homo sapiens, UniProt O15439)
T1 construct: recombinant human MRP4-his6 in Sf9 membrane vesicles
T1 sequence (O15439 1-1325): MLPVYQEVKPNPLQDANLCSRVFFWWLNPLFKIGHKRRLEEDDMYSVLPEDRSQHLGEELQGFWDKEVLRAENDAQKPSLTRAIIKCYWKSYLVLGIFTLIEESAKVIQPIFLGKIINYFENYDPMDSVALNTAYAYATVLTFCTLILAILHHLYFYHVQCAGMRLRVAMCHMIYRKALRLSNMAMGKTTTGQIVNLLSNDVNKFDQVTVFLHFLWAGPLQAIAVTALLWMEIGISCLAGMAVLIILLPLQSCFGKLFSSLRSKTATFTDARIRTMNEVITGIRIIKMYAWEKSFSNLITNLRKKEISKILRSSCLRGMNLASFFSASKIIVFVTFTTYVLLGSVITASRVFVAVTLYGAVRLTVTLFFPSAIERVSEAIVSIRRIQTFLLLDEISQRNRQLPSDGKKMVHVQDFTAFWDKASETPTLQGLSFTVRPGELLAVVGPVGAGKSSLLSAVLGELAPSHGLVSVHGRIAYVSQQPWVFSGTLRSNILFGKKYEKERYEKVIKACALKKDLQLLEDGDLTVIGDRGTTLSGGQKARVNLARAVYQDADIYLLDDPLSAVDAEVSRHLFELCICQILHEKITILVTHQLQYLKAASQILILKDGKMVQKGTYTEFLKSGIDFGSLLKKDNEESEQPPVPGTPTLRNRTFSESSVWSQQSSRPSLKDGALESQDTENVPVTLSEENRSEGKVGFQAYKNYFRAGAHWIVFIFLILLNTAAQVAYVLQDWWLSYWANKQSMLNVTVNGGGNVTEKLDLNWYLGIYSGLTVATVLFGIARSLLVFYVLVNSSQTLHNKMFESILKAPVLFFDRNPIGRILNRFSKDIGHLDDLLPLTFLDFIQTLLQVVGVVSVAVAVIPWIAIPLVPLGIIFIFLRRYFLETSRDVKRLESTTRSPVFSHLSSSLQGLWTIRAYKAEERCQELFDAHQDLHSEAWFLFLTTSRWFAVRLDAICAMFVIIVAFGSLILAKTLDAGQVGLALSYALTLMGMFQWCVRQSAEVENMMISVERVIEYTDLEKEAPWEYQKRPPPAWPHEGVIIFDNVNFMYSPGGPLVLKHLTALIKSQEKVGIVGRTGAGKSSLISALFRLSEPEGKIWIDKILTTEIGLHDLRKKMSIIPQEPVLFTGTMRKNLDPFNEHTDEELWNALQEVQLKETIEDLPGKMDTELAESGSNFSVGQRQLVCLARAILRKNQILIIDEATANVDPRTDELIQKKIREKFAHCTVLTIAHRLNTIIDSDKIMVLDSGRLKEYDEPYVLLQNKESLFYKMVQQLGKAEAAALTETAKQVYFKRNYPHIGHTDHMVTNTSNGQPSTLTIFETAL
Assay: fluorescent vesicular transport assay, ATP-dependent uptake in Sf9 MRP4 membrane vesicles against control vesicles (Km)
Assay type: biochemical

“8-(2-[fluoresceinyl]aminoethylthio)adenosine-3′,5′-cyclic monophosphate [fluo-cAMP]” gave a Km of 5.8 µM.
